We go through 1 compound from US12678418B2, “Compositions and methods for the treatment of threatened respiratory failure caused by coronavirus infection and disease” (ENCYT TECHNOLOGIES, INC., priority 2020, dated 2026).

Molecules are shown by their SMILES.

One assay relates to Neu1 sialidase. The experiment in a line: Sialidase activity in live RAW-blue macrophage cells, 4-MUNANA substrate (Example 1). The assay is classed as cell-based, mouse. Conditions: inhibitor 200 μg/mL, 0.318 mM 4-MUNANA.
The target in the next assay is T1, MMP1 (Homo sapiens, UniProt P03956).
T1 sequence (P03956 100-469): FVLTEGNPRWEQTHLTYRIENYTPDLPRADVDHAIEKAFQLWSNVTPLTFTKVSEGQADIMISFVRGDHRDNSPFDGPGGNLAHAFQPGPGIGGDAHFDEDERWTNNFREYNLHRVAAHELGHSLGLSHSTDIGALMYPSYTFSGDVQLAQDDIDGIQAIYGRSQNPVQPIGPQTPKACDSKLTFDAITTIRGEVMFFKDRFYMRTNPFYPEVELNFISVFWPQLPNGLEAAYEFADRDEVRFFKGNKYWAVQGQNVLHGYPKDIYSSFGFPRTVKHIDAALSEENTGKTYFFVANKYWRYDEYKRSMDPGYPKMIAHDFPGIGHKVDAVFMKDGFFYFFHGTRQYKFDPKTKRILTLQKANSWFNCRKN
Conditions: read-out: IC50 for MMP1; cited from earlier work.

The target of another assay is MMP13 (Homo sapiens, UniProt P45452). The following applies: cited from earlier work.

Take `CCN(CC)Cc1cc(C)c(N(Cc2ccccc2)S(=O)(=O)c2ccc(OC)cc2)c(C(=O)NO)c1` [MMP9 inhibitor]: in the assay on Neu1 sialidase (FIG. 2B), the “inhibition of sialidase activity associated with S-protein” value is recorded as “inhibited”. For the same compound, the “inhibition of sialidase activity associated with S-protein (UK variant)” value in the assay on Neu1 sialidase (FIG. 2C) is given as “inhibited”. The results for the IC50 on MMP1 and at MMP13 were 1050 nM and 113 nM, respectively.

Broadly, the IC50 is the concentration at which inhibition is half-maximal.
